Ends that are not written are not given here.
Key:
[1] = system: Dorsal root ganglion F11 (DRG-F11) neuronal cells; experiment: dTAT penetration into cells resistant to transfection; format: cell-based; settings: 5 μM, 1 hour
Protocol: Dorsal root ganglion F11 (DRG-F11) neuronal cells are notoriously difficult to transfect. dTAT exposure was tested in DRG-F11 cells to determine whether the transfection difficulties also posed a barrier for dTAT. DRG-F11 cells were incubated for 1 hour with dTAT (5 μM).

HeLa cells [2] = experiment: Quantitative determination of peptide uptake inside cells (bulk fluorescence of cell lysates); format: cell-based; settings: 1-10 μM, 1 h
Protocol: HeLa cells were seeded in a 48 well dish, grown and washed as described above. For the peptide uptake experiment, each well was incubated for 1 h with varying concentration of acTAT, TAT or dTAT (range: 5-25 μM peptide concentration). For the titration experiment, cells were incubated with dTAT (5 μM) and varying concentrations of DEAC-K9 (range: 1-20 μM). Cells were then washed with PBS and nrL-15 and imaged. Multiple images for each condition were obtained and processed. To lyse cells, nrL-15 was removed from the wells and a total of 100 μL of HeLa cell lysis Buffer (50 mM Tris pH 7.5, 2 mM EDTA, 2 mM DTT, 0.1% Triton X-100) was incubated with cells for 5 min. The cells were lysed and scraped off the dish and pipetted into a 1.5 mL microcentrifuge tube. The cell lysates were centrifuged at 13.2K RPM for 25 min. […] The fluorescence from the cell lysates were measured using a plate reader equipped with a fluorescence module (Ex==525, Em=580-640 nm) (GloMax®-Multi+ Detection System, Promega, Fitchburg, Wis.). For the titration experiment, 80 μL of supernatant was diluted to a total volume of 100 μL and the bulk fluorescence was measured using a SLM-8000C fluorometer (Ex=435 nm, Em=465-475 nm) (SLM Instruments, Bath, UK). The fluorescence emission was averaged and recorded. […] The absorbance at 600 nm was measured using the plate reader. […]

HeLa cells [3] = experiment: Step-wise repeated delivery of DEAC-K9 and SNAP-Surface 488; format: cell-based; settings: 5 μM dTAT + 5 μM DEAC-K9 1 h, then 5 μM dTAT + 5 μM SNAP-Surface 488 1 h
Protocol: To test this idea, the step-wise delivery of two different molecules (DEAC-K9 and SNAP-Surface® 488) was assessed. Cells were first incubated with dTAT (5 μM) and DEAC-K9 (5 μM) for 1 h. […] Twenty minutes later, cells were incubated with dTAT (5 μM) and SNAP-Surface® 488 (5 μM) for 1 h. […] Briefly, HeLa cells were first incubated with 5 μM dTAT and 5 μM DEAC-K9 for 1 h. Cells were then washed, incubated with 5 μM SNAP-Surface® 488 for 1 h and imaged.

[4] = system: HeLa, Neuro-2a and HDF cells; experiment: Cell proliferation, MTT assay in several cell types; format: cell-based; settings: 5 μM, 1 h; up to 36 h after incubation
Protocol: FIG. 12 illustrates that cells treated with dTAT proliferate at a rate identical to untreated cells. HeLa, Neuro-2a and HDF cells were incubated with 5 μM dTAT for 1 h or left untreated. Proliferation was assessed using a MTT assay for up to 36 h after incubation (150,000 cells/experiment, experiments in triplicates, average and standard deviations represented).
In order to determine cells that had compromised plasma membranes, cells were treated with SYTOX® Green (SYTOX® Blue in some cases) and Hoechst (Invitrogen, Carlsbad, Calif.). SYTOX® dyes are cell-impermeable and stain the DNA of cells with compromised plasma membranes. The Hoechst dye is cell permeable and stains the DNA of all cells. Images were acquired using the green and blue filter. The green and blue images were used to count cells with a blue or green stained nucleus. Image J was used to count the dead (green) and total cells (blue). Cytotoxicity was determined from the ratio of SYTOX® Green positive cells/total number of cells. […] After the incubation each sample was mixed and the absorbance at 600 nm was measured. […] A second control consisted of cells treated with the delivery peptide but to which no MTT was added to subtract the contribution of TMR from the measured absorbance. The absorbance of the negative control was subtracted from all samples.

EGFP = EGFP (Aequorea victoria, UniProt P42212, F64L/H231L/S65T); settings: EGFP 1 μM, dTAT 5 μM, excitation 488 nm
Protocol: Fluorescence emission spectra were obtained using an SLM-8000C fluorometer upgraded with the phoenix package (ISS, Champaign, Ill.) and Vinci v.1.6 PC software (ISS). The experiments were conducted using a quartz cuvette at room temperature. The samples were excited at 488 nm (slit width=1 mm) and the fluorescence emission was scanned from 500 to 650 nm (slit width=1 mm). All samples (EGFP (1 μM) and dTAT (5 μM)) were prepared using nrL-15.

HeLa cells [5] = experiment: Cell viability, SYTOX exclusion assay; format: cell-based
Protocol: In order to determine cells that had compromised plasma membranes, cells were treated with SYTOX® Green (SYTOX® Blue in some cases) and Hoechst (Invitrogen, Carlsbad, Calif.). SYTOX® dyes are cell-impermeable and stain the DNA of cells with compromised plasma membranes. The Hoechst dye is cell permeable and stains the DNA of all cells. Images were acquired using the green and blue filter. The green and blue images were used to count cells with a blue or green stained nucleus. Image J was used to count the dead (green) and total cells (blue). Cytotoxicity was determined from the ratio of SYTOX® Green positive cells/total number of cells. An MTT-assay was performed to determine the effect of the peptide on cell proliferation. Cells were seeded in a 6-well dish, grown and washed as described above. One well from the dish was incubated with 5 μM dTAT at 37° C. for 1 h. A second well was left untreated and served as control. […] Cells were trypsinized and seeded into 96-well dishes containing 200 μL of DMEM. The cells were then allowed to attach to the bottom of the dish for 12 h. […] After the incubation each sample was mixed and the absorbance at 600 nm was measured. […] A second control consisted of cells treated with the delivery peptide but to which no MTT was added to subtract the contribution of TMR from the measured absorbance. The absorbance of the negative control was subtracted from all samples.

[6] = system: HeLa cells expressing SNAPH2B; experiment: Endosomal leakage efficiency with SNAP-Surface 488; settings: 2.5 μM dTAT with 5 μM SNAP-Surface 488, 1 h
Protocol: HeLa cells were incubated with 5 μM SNAP-Surface® 488 for 1 h, washed and imaged. […] It should be noted that SNAP-Surface® 488 fluorescence is quenched (80%) before it reacts with the SNAP fusion tag.
HeLa cells were seeded in 8-well dishes, grown and washed as described in the prior section. Cells were then co-incubated with 5 M delivery peptide and with the cargo at the corresponding concentration for 1 h at 37° C. Cells were washed 3 times with PBS and nrL-15 and placed on the microscope. Images were acquired as described before. For transfection and expression of SNAP-H2B and TagCFP-mito, plasmids were mixed with Lipofectamine™ 2000 reagent in opti-MEM media and incubated at room temperature for 30 min. The DNA complex was added to previously seeded HeLa cells (80% confluent) on an 8-well dish and cells were kept at 37° C. for 24 h.

Substance: (CK(TMR)TAT)2 (CK(TMR)RKKRRQRRRG; also: dimer) [dTAT]
- penetration into the cytosol [1]: penetrates into the cytosol of DRG-F11 cells
- overall amount of peptide inside cells (cytosol+endosomes), bulk fluorescence of lysates (HeLa cells [2]): almost linearly correlated to the concentration of dTAT administered extracellularly
- repeatability of dTAT-mediated delivery (HeLa cells [3]): can be repeated
- proliferation of treated versus untreated cells [4]: nearly identical proliferation patterns
- binding to EGFP (EGFP): does not bind to EGFP
- effect on cell viability (HeLa cells [5]; 5 μM): does not affect cell viability
- fraction of dead cells (HeLa cells [5]; 5 μM dTAT, 1 h incubation, 1, 24 and 48 h after incubation): below 5%
- cytosolic release [6]: does not result in significant cytosolic release

Reference: patent US9662404B2, “Compositions and methods for the delivery of molecules into live cells” (The Texas A&M University System, priority 2013, dated 2017)
